# Where two headings read alike, the source gives them in different places.
# Legend:
# DU145 tumour xenografts = test: DU145 mouse xenograft prostate cancer model study; type: in vivo, Male SCID mice; details: 25 mg/kg
# Experimental: Cabazitaxel was prepared fresh for each dosing day. […] Dosing solutions at 4.5 and 5.5 mg/mL were prepared from this working stock immediately prior to injection.
# Male SCID mice (age 7-8) weeks were inoculated subcutaneously in the flank with 3×10^6 DU145 cells in PBS:Matrigel (1:1). Mice were weighed and tumours measured 2-3 times weekly using electronic callipers. […] Treatment groups were saline, Cabazitaxel (9 and 11 mg/kg), SPL-9048 (9 mg/kg) and SPL-9005 (25 mg/kg). […] The experiment was ended on Day 126, or earlier if an ethical endpoint was met. Survival curves were analysed using the Mantel Cox log rank test.
# Tumour volumes were determined 2-3 times weekly and are expressed as mean tumour volume (±SEM).
# Graphs are shown for each group until fewer than 6 animals remained in each group.
# [1] = Single-dose toxicokinetic study, intravenous bolus, free (unconjugated) cabazitaxel in plasma; type: in vivo, Sprague Dawley Crl:CD (SD) rats; details: for Cmax free (unconjugated) Cabazitaxel: i.v. bolus; for % JEVTANA ® brand cabazitaxel dose: relative to JEVTANA 2.5 mg/kg
# Experimental: A single-dose toxicokinetic study of SPL-9048 and SPL-9005 was carried out by intravenous bolus injection in rats with a 21-day observation period. The control, 0.9% sodium chloride, was prepared and dispensed on the day of dosing. SPL-9048 and SPL-9005 were prepared at appropriate concentrations to meet dose level requirements. The dosing formulations were prepared and dispensed on each day of dosing and were used within 3 hours of preparation. The required amount of test article was weighed out and dissolved in a suitable volume of normal saline with gentle swirling and the pH was recorded. Cabazitaxel (JEVTANA® brand cabazitaxel) was prepared at appropriate concentration to meet dose level requirements. […] This stock solution was further diluted with normal saline to produce the final dosing concentration within 30 minutes.
# The animals used were male and female Sprague Dawley Crl:CD (SD) rats. The animals were 10 to 14 weeks old and weighed between 327 and 565 g for males and 212 and 316 g for females at initiation of dosing. Animals were acclimated to their designated housing for at least 4 days before the first day of dosing. Animals were assigned to groups by a stratified randomization scheme designed to achieve similar group mean body weights. Males and females were randomised separately. Animals in poor health or at extremes of body weight ranges were not assigned to groups. PMI Nutrition International Certified Rodent Chow No. 5CR4 was provided ad libitum throughout the study except during designated procedures. The same diet in meal form was also provided, as needed. Municipal tap water, after treatment by reverse osmosis and ultraviolet irradiation, was freely available to each animal via an automatic watering system, except during designated procedures. Water bottles were also provided, as required. Animal were socially housed for psychological/environmental enrichment and were provided with items such as a chewing object, except when interrupted by study procedures/activities. Veterinary care was available throughout the course of the study.
# The test and control articles were administered to the appropriate animals at the amounts indicated in the table below via a single intravenous (slow bolus) injection to the tail vein.
# The dose volume for each animal was based on the most recent body weight measurement. The animals were temporarily restrained for dose administration and were not sedated. The doses were given using a syringe with attached needle. The first day of dosing for each group was designated as Day 1. The comparator dosing formulation (JEVTANA® brand Cabazitaxel) and test articles were maintained between 15 and 30° C. during dosing.
# Toxicokinetic parameters were estimated using Phoenix pharmacokinetic software. A non-compartmental approach consistent with the intravenous route of administration was used for parameter estimation.
# [2] = Separate tolerability study in female SCID mice; type: in vivo; details: 25 mg/kg Cabazitaxel equivalent
# [3] = cited from earlier work
# [4] = cited from earlier work; remark: listed apart in the source
# [5] = Toxicology study in rats at 1 mg/kg (neutropenia); type: in vivo
# Text: References to amounts dosed in mg/kg for the dendrimeric compound are to the amounts of Cabazitaxel that may theoretically be released by the dendrimer.
# [6] = 2.5 mg/kg, by Day 2 through Day 7, males and females
# [7] = system: MDA-MB-231 tumour xenografts; details: 9 mg/kg i.v. days 1, 8, 15
# Experimental: Cabazitaxel was prepared fresh for each dosing day.
# Tumour volumes were determined twice weekly and were expressed as mean tumour volume (±SEM).
# The data represent the mean percent weight change from baseline (Day 1) for each group; bars SEM.
# [8] = system: CAPAN-1 tumour xenografts; test: CAPAN-1 mouse xenograft pancreatic cancer model study; type: in vivo, Female NOD-SCID Interleukin-2 receptor gamma chain null mice; details: dosing days 1, 8, 15
# Experimental: Gemcitabine and ABRAXANE® were obtained from the Peter MacCallum Cancer Centre pharmacy, and were dissolved in saline solution immediately prior to dosing.
# Female NOD-SCID Interleukin-2 receptor gamma chain null mice (aged 9 weeks) were inoculated subcutaneously on the flank with 5×10^6 CAPAN-1 cells in PBS:Matrigel (1:1).
# Tumour growth data was analysed in GraphPad Prism for ANOVA followed by Dunnett's post ad-hoc test.
compound,measurement,setting,value
BHALys[Lys]32[α-TDA-Cabazitaxel]32 †[ε-PEG˜2100]32‡ [SPL9005],male mice recovered to +5/10% starting weight,DU145 tumour xenografts; after day 40,2/10
same,male mice with >20% weight loss,"DU145 tumour xenografts; after third dose, approx. day 25",8/10
same,AUC0-t free Cabazitaxel,"[1]; 1 mg/kg drug eq., males",0.20294 µg·h/mL
same,Cmax free (unconjugated) Cabazitaxel,"[1]; 1 mg/kg drug eq., males",0.00441 µg/mL
same,% JEVTANA ® brand cabazitaxel dose,"[1]; 1 mg/kg drug eq., males",30%
same,AUC0-t free Cabazitaxel,"[1]; 2.5 mg/kg drug eq., males",0.54896 µg·h/mL
same,Cmax free (unconjugated) Cabazitaxel,"[1]; 2.5 mg/kg drug eq., males",0.00929 µg/mL
same,% JEVTANA ® brand cabazitaxel dose,"[1]; 2.5 mg/kg drug eq., males",81%
same,mean weight loss,[2],below 10%
CO[C@H]1C(=O)[C@]2(C)[C@@H](OC)C[C@H]3OC[C@@]3(OC(C)=O)[C@H]2[C@H](OC(=O)c2ccccc2)[C@]2(O)C[C@H](OC(=O)[C@H](O)[C@@H](NC(=O)OC(C)(C)C)c3ccccc3)C(C)=C1C2(C)C [Cabazitaxel],patients with febrile neutropenia,[3]; 25-mg/m2 dose,4%
same,patients with prolonged grade 4 neutropenia,[3]; 25-mg/m2 dose,4%
same,AUC concentration,[3]; 25-mg/m^2 dose,642±320 mcg/L per hour
same,Cmax,[3]; 25-mg/m^2 dose,0.535 ± 0.305 µg/mL
same,dose eliminated within 2 weeks,[3]; in vivo,Approximately 80%
same,patients with diarrhea,[3]; in vivo,56%
same,patients with fatigue,[3]; in vivo,36%
same,"patients with grade 1 hypersensitivity reactions (flushing, dizziness, chest tightness)",[3]; in vivo,8%
same,patients with nausea,[3]; in vivo,40%
same,patients with neurotoxicity,[3]; in vivo,36%
same,patients with vomiting,[3]; in vivo,16%
same,"intermediate elimination phase, average t½","[3]; triphasic model, plasma",78 ± 36 min
same,"prolonged terminal elimination phase, average t½","[3]; triphasic model, plasma",77.3 ± 45.5 h
same,"rapid initial elimination phase, average terminal half-life t½","[3]; triphasic model, plasma",2.6 ± 1.4 min
same,mean Cmax,"[4]; 25 mg/m2, 1-hour IV, n=67",0.226 µg/mL
same,Tmax (end of infusion),"[4]; 25 mg/m2, 1-hour IV",60 min
same,mean AUC,"[4]; 25 mg/m2, 1-hour IV",0.991 µg·h/mL
same,patients with Grade 3 or 4 febrile neutropenia,[4]; in vivo,8%
same,patients with neutropenia (all grades),[4]; in vivo,94%
same,Cabazitaxel measurability in plasma over time,[1]; 2.5 mg/kg,not measurable more than 24 hours after
same,AUC0-t free Cabazitaxel,"[1]; 2.5 mg/kg drug eq., males",0.67999 µg·h/mL
same,Cmax free (unconjugated) Cabazitaxel,"[1]; 2.5 mg/kg drug eq., males",0.80105 µg/mL
same,% JEVTANA ® brand cabazitaxel dose,"[1]; 2.5 mg/kg drug eq., males",100%
same,Cmax,"[1]; Sprague Dawley Crl:CD (SD), rat, plasma, intravenous, 2.5 mg/kg",0.801 µg/mL
same,Tmax,"[1]; male, Sprague Dawley Crl:CD (SD), rat, plasma, intravenous, 2.5 mg/kg, males",2 min
same,rebound after neutropenia at day 14,[5],substantial rebound at day 14
same,"neutropenia (FIG. 6), day 7 in particular",[5]; male and female rats,dip in values
same,test article related hematology changes,[6],generally greater
same,tumours reaching ethical tumour volume endpoint by day 98,[7],9 of 10
"Nc1ccn([C@@H]2O[C@H](CO)[C@@H](O)C2(F)F)c(=O)n1 [Gemcitabine, reference compound]",Tumour Growth inhibition (%),"[8]; Day 37, Gemcitabine 80 mg/kg i.p., ABRAXANE 40 mg/kg i.v., SPL9048 […] i.v.",40%
same,"anti-tumour efficacy (mean tumour volume, FIG. 7)",[8]; study to day 107,Neither Gemcitabine or ABRAXANE® were effective in this model

# From patent US11970583B2, “Therapeutic dendrimer” (Starpharma Pty Ltd., priority 2018, dated 2024)
